Where two headings read alike, the source gives them in different places.
Assay: Ocular tissue concentrations (aqueous humor, vitreous humor, iris, retina, choroid, cornea) after topical ocular, subcutaneous and intravitreal administration
Assay type: in vivo, New Zealand White rabbits
Settings: for Cornea Conc. (ng/mL) OS: Cornea homogenate; for Cornea Conc. (ng/mL) OS / concentration at 0.5 h / concentration at 1 h / concentration at 2 h / concentration at 4 h: subcutaneous 5 mg/kg/dose; for concentration at 6 hr / concentration at 24 hr / concentration at 48 hr / concentration at 72 hr / concentration at 0.5 h / concentration at 1 h / concentration at 2 h / concentration at 4 h: New Zealand White, rabbit; for concentration at 6 hr / concentration at 24 hr / concentration at 48 hr / concentration at 72 hr: other: intravitreal, 2.5 mg/eye; for concentration at 0.5 h / concentration at 1 h / concentration at 2 h / concentration at 4 h: subcutaneous, 5 mg/kg/dose
Method: To measure the concentration of Compound 1 in plasma and ocular tissues following topical ocular, subcutaneous, and intravitreal administration, New Zealand White rabbits were administered Compound 1, and plasma and ocular samples were collected at pre-determined time points. Compound 1 formulations were prepared fresh on each day of dosing.
Ocular tissue samples from both eyes of each animal were collected and weights were recorded. Plasma and ocular tissue sample concentrations of Compound 1 were determined by LC-MS/MS.
New Zealand White rabbits weighing 2.5 to 3.5 kg were used on this study. Rabbits were housed one per cage. Animals were not fasted and only healthy animals with no ocular illness were used. Two rabbits per group were sacrificed at each of four ocular tissue sampling time points for a total of eight rabbits per group.
Animals were anesthetized for ocular (topical) and intravitreal dosing following the 12IA7 IACUC protocol. Each rabbit received a bolus dose of test formulation either via topical ocular administration 3 times daily on Days 1 and 2 (at 0, 6, and 12 hours), and once on Day 3 (at 0 hours) into both eyes; via intravitreal administration into both eyes once on Day 1 (at 0 hours); or via subcutaneous administration 2 times daily on Days 1 and 2 (at 0 and 8 hours) and once daily on Day 3 (at 0 hours). Doses were given within an approximately 1 hour window each day where applicable.
On Day 1, for intravitreal administration, or on Day 3, for topical ocular and subcutaneous administration, at the appropriate ocular tissue collection time points, animals were euthanized and both eyes were enucleated immediately. Following enucleation, each eye was rinsed with phosphate-buffered saline. Ocular tissue samples from both eyes of each animal were collected at predetermined time points and weights were recorded. All the samples were frozen immediately on dry ice, and stored at −60° C. to −80° C. pending bioanalysis.
An LC-MS/MS method was developed for the determination of Compound 1 in rabbit aqueous tissues (plasma, aqueous and vitreous humor) and solid ocular tissue samples. A pre-study standard curve was analyzed to determine the specificity, range, and lower limit of quantitation of the method. Plasma and tissue homogenate study samples were extracted and analyzed. All the samples were treated identically to the standards.
One eight-point standard curve was used in each analytical batch. To be accepted, each batch must have had at least five of eight standards with accuracy within ±20% of nominal, except at the lower limit of quantification (LLOQ), where ±25% was acceptable.
Concentration versus time data is plotted in FIGS. 3-16. All data are expressed as ng/g of the free drug. Samples that were below the limit of quantitation (0.2 ng/mL) were not used in the calculation of averages.

[1] = choroid homogenate, Choroid homogenate, left eye, intravitreal 2.5 mg/eye (group 5), individual animals, read-out: Conc. (ng/mL) OS
[2] = choroid homogenate, Choroid homogenate, OD, sodium salt, intravitreal 2.5 mg/eye, Group 4, read-out: Choroid Conc. (ng/mL) OD
[3] = choroid homogenate, Choroid homogenate, OS, sodium salt, intravitreal 2.5 mg/eye, Group 4, read-out: Choroid Conc. (ng/mL) OS
[4] = choroid homogenate, Choroid homogenate, right eye, intravitreal 2.5 mg/eye (group 5), individual animals, read-out: Conc. (ng/mL) OD
[5] = choroid homogenate, Choroid homogenate, OD, sodium salt, Group 2, read-out: Choroid Conc. (ng/mL) OD
[6] = choroid homogenate, Choroid homogenate, OS, sodium salt, Group 2, read-out: Choroid Conc. (ng/mL) OS
[7] = choroid, Choroid, OD, sodium salt, intravitreal 2.5 mg/eye, Group 4, read-out: Choroid Conc. (ng/g) OD
[8] = choroid, Choroid, OS, sodium salt, intravitreal 2.5 mg/eye, Group 4, read-out: Choroid Conc. (ng/g) OS
[9] = choroid, Choroid, average, intravitreal 2.5 mg/eye (group 5), read-out: Avg.
[10] = choroid, Choroid, left eye, intravitreal 2.5 mg/eye (group 5), individual animals, read-out: Conc. (ng/g) OS
[11] = choroid, Choroid, sodium salt, intravitreal 2.5 mg/eye, Group 4, read-out: Choroid Avg.
[12] = choroid, Choroid, right eye, intravitreal 2.5 mg/eye (group 5), individual animals, read-out: Conc. (ng/g) OD
[13] = choroid, Choroid, OD, sodium salt, Group 2, read-out: Choroid Conc. (ng/g) OD
[14] = choroid, Choroid, OS, sodium salt, Group 2, read-out: Choroid Conc. (ng/g) OS
[15] = choroid, Choroid, free acid, Group 3, read-out: Choroid Average
[16] = choroid, Choroid, sodium salt, Group 2, read-out: Choroid Average

With `COC(=O)N[C@@H](Cc1ccccc1)C(=O)N[C@@H](Cc1ccc(NS(=O)(=O)O)cc1)c1csc(-c2cccs2)n1` [Compound 1] the “Cornea Conc. (ng/mL) OS” value (1 hr, OS, free acid, Group 3) was “BLOQ (Below the limit of quantitation (0.5 ng/mL))”, the “Cornea Conc. (ng/mL) OS” value (2 hr, OS, free acid, Group 3) was “BLOQ (Below the limit of quantitation (0.5 ng/mL))” and the concentration at 6 hr [1] was 63400 ng/mL. For the same compound, the concentration at 24 hr [2] was 11800 ng/mL, the concentration at 24 hr [3] was 9890 ng/mL and the concentration at 24 hr [1] was 28400 ng/mL. It also gave a concentration at 48 hr [2] of 3480 ng/mL, a concentration at 48 hr [3] of 3740 ng/mL and a concentration at 48 hr [1] of 9320 ng/mL. The concentration at 48 hr [4] was 9940 ng/mL, the concentration at 72 hr [3] was 282 ng/mL and the concentration at 72 hr [1] was 2660 ng/mL. It also gave a concentration at 72 hr [4] of 2180 ng/mL, a concentration at 0.5 h [5] of 24 ng/mL and a concentration at 0.5 h (choroid homogenate, Choroid homogenate, OS, free acid, Group 3, read-out: Choroid Conc. (ng/mL) OS) of 7.55 ng/mL. It also gave a concentration at 0.5 h [6] of 25.6 ng/mL, a concentration at 1 h (choroid homogenate, Choroid homogenate, 1 hr, OD, free acid, Group 3, read-out: Choroid Conc. (ng/mL) OD) of 6.04 ng/mL and a concentration at 1 h (choroid homogenate, Choroid homogenate, 1 hr, OD, sodium salt, Group 2, read-out: Choroid Conc. (ng/mL) OD) of 29.1 ng/mL. It also gave a concentration at 1 h (choroid homogenate, Choroid homogenate, 1 hr, OS, free acid, Group 3, read-out: Choroid Conc. (ng/mL) OS) of 8.01 ng/mL, a concentration at 1 h (choroid homogenate, Choroid homogenate, 1 hr, OS, sodium salt, Group 2, read-out: Choroid Conc. (ng/mL) OS) of 13.1 ng/mL and a concentration at 2 h (choroid homogenate, Choroid homogenate, 2 hr, OD, free acid, Group 3, read-out: Choroid Conc. (ng/mL) OD) of 3.32 ng/mL. It also gave a concentration at 2 h (choroid homogenate, Choroid homogenate, 2 hr, OS, free acid, Group 3, read-out: Choroid Conc. (ng/mL) OS) of 4.84 ng/mL, a concentration at 4 h (choroid homogenate, Choroid homogenate, OD, free acid, Group 3, read-out: Choroid Conc. (ng/mL) OD) of 4.82 ng/mL and a concentration at 4 h [5] of 1.7 ng/mL. For the same compound, the concentration at 4 h [6] was 1.22 ng/mL, the concentration at 0.5 h (choroid homogenate, TABLE 16: Choroid homogenate, OS, free acid, Group 3, read-out: Choroid Conc. (ng/mL) OS) was 7.55 ng/mL and the concentration at 1 h (choroid homogenate, TABLE 16: Choroid homogenate, 1 hr, OD, free acid, Group 3, read-out: Choroid Conc. (ng/mL) OD) was 6.04 ng/mL. The concentration at 1 h (choroid homogenate, TABLE 16: Choroid homogenate, 1 hr, OS, free acid, Group 3, read-out: Choroid Conc. (ng/mL) OS) was 8.01 ng/mL, the concentration at 2 h (choroid homogenate, TABLE 16: Choroid homogenate, 2 hr, OD, free acid, Group 3, read-out: Choroid Conc. (ng/mL) OD) was 3.32 ng/mL and the concentration at 2 h (choroid homogenate, TABLE 16: Choroid homogenate, 2 hr, OS, free acid, Group 3, read-out: Choroid Conc. (ng/mL) OS) was 4.84 ng/mL. It also gave a concentration at 4 h (choroid homogenate, TABLE 16: Choroid homogenate, OD, free acid, Group 3, read-out: Choroid Conc. (ng/mL) OD) of 4.82 ng/mL, a concentration at 6 hr [7] of 346000 ng/g and a concentration at 6 hr [8] of 484000 ng/g. For the same compound, the concentration at 6 hr [9] was 664000 ng/g, the concentration at 6 hr [10] was 697000 ng/g and the concentration at 6 hr [11] was 947000 ng/g. For the same compound, the concentration at 24 hr [7] was 130000 ng/g, the concentration at 24 hr [8] was 109000 ng/g and the concentration at 24 hr [9] was 398000 ng/g. The concentration at 24 hr [10] was 312000 ng/g, the concentration at 24 hr [11] was 139000 ng/g and the concentration at 48 hr [7] was 38300 ng/g. It also gave a concentration at 48 hr [8] of 41100 ng/g, a concentration at 48 hr [9] of 120000 ng/g and a concentration at 48 hr [10] of 103000 ng/g. It also gave a concentration at 48 hr [12] of 109000 ng/g, a concentration at 48 hr [11] of 38600 ng/g and a concentration at 72 hr [8] of 3100 ng/g. The concentration at 72 hr [9] was 27600 ng/g, the concentration at 72 hr [10] was 29300 ng/g and the concentration at 72 hr [12] was 24000 ng/g. For the same compound, the concentration at 72 hr [11] was 2720 ng/g, the concentration at 0.5 h [13] was 264 ng/g and the concentration at 0.5 h (choroid, Choroid, OS, free acid, Group 3, read-out: Choroid Conc. (ng/g) OS) was 83.1 ng/g. It also gave a concentration at 0.5 h [14] of 282 ng/g, a concentration at 0.5 h [15] of 127 ng/g and a concentration at 0.5 h [16] of 266 ng/g. It also gave a concentration at 1 h (choroid, Choroid, 1 hr, OD, free acid, Group 3, read-out: Choroid Conc. (ng/g) OD) of 66.4 ng/g, a concentration at 1 h (choroid, Choroid, 1 hr, OD, sodium salt, Group 2, read-out: Choroid Conc. (ng/g) OD) of 320 ng/g and a concentration at 1 h (choroid, Choroid, 1 hr, OS, free acid, Group 3, read-out: Choroid Conc. (ng/g) OS) of 88.1 ng/g. It also gave a concentration at 1 h (choroid, Choroid, 1 hr, OS, sodium salt, Group 2, read-out: Choroid Conc. (ng/g) OS) of 144 ng/g, a concentration at 1 h (choroid, Choroid, 1 hr, free acid, Group 3, read-out: Choroid Average) of 83.3 ng/g and a concentration at 1 h (choroid, Choroid, 1 hr, sodium salt, Group 2, read-out: Choroid Average) of 200 ng/g. For the same compound, the concentration at 2 h (choroid, Choroid, 2 hr, OD, free acid, Group 3, read-out: Choroid Conc. (ng/g) OD) was 36.5 ng/g, the concentration at 2 h (choroid, Choroid, 2 hr, OS, free acid, Group 3, read-out: Choroid Conc. (ng/g) OS) was 53.2 ng/g and the concentration at 2 h (choroid, Choroid, 2 hr, free acid, Group 3, read-out: Choroid Average) was 47.7 ng/g. The concentration at 2 h (choroid, Choroid, 2 hr, sodium salt, Group 2, read-out: Choroid Average) was 68.8 ng/g, the concentration at 4 h (choroid, Choroid, OD, free acid, Group 3, read-out: Choroid Conc. (ng/g) OD) was 53 ng/g and the concentration at 4 h [13] was 18.7 ng/g. It also gave a concentration at 4 h [14] of 13.4 ng/g, a concentration at 4 h [15] of 61 ng/g and a concentration at 4 h [16] of 15.5 ng/g. It also gave a concentration at 0.5 h (choroid, TABLE 16: Choroid, OS, free acid, Group 3, read-out: Choroid Conc. (ng/g) OS) of 83.1 ng/g, a concentration at 0.5 h (choroid, TABLE 16: Choroid, free acid, Group 3, read-out: Choroid Average) of 127 ng/g and a concentration at 1 h (choroid, TABLE 16: Choroid, 1 hr, OD, free acid, Group 3, read-out: Choroid Conc. (ng/g) OD) of 66.4 ng/g. The concentration at 1 h (choroid, TABLE 16: Choroid, 1 hr, OS, free acid, Group 3, read-out: Choroid Conc. (ng/g) OS) was 88.1 ng/g, the concentration at 1 h (choroid, TABLE 16: Choroid, 1 hr, free acid, Group 3, read-out: Choroid Average) was 83.3 ng/g and the concentration at 2 h (choroid, TABLE 16: Choroid, 2 hr, OD, free acid, Group 3, read-out: Choroid Conc. (ng/g) OD) was 36.5 ng/g.

From US11666558B2, “Methods of treating intraocular pressure with activators of Tie-2” (EyePoint Pharmaceuticals, Inc., priority 2015, dated 2023)
